Measurements taken from PMC5483439, “The Effect of Pungent and Tingling Compounds from Piper nigrum L. on Background K^+ Currents” (Frontiers in Pharmacology, 2017).
Read-outs that look alike come from different tables or passages of the source.

Legend:
tongue surface = test system: tongue surface; set-up: method as in Dawid et al., 2012; conditions: human, ref Dawid et al., 2012, cited from earlier work; for pungent threshold concentration / tingling threshold concentration: filter paper on tongue
hKCNK3 = target: T1, hKCNK3 (Homo sapiens, UniProt O14649); assay: Two-electrode voltage clamp on Xenopus laevis oocytes expressing hKCNK3; format: cell-based; conditions: for effect on basal activity of hKCNK3: 1 mM; for % of basal activity after saturating concentrations: hKCNK3 in Xenopus oocytes
T1 construct: expressed in transfected cells; host or cells: Xenopus laevis oocytes injected with cRNA (plasmid pIRES-CD8, gift of Dr. Fabrice Duprat)
From the text: (§1) Human KCNK3 (TASK-1, K2P3.1) cloned into the expression vector pIRES-CD8 was a gift from Dr. Fabrice Duprat (Institut National de la Santé et de la Recherche Médicale, Antipolis, France). Human KCNK18 (hTRESK, K2P18.1), cloned into the plasmid pEXO, was a gift from Dr. P. Enyedi (Semmelweis University, Budapest, Hungary). These plasmids were linearized with the restriction enzymes BamHI and XbaI, respectively, and then used as templates for in vitro transcription. Human KCNK9 (hTASK-3, K2P9.1) cloned into the expression vector pCR4-TOPO, was purchased from Imagenes (Berlin, Germany). The plasmid was linearized with the restriction enzyme SspI, to generate a linear cDNA template for in vitro transcription. mKCNK3 was isolated from mouse heart by standard procedures and inserted into pSGEM. mKCNK9 and mKCNK18 were kindly provided by Dr. D. Bayliss (University of Virginia, Charlottesville, VA, United States) and Prof. Dr. P. Enyedi (Semmelweis University, Budapest, Hungary). Both channels were subcloned into pSGEM. The pSGEM plasmids were subsequently linearized with the restriction enzyme PacI. The capped RNAs were synthesized in the presence of the capping analog m7G(5′)ppp(5′)G using the AmpliCap-T7 Message Maker kit (Epicentre, Madison, WI, United States). The cRNA was dissolved in nuclease-free water to obtain a final concentration of 100 ng/μL.
(§2) The expression in Xenopus laevis oocytes was essentially performed as previously described ([Beltrán et al., 2013]). Briefly, mature female Xenopus laevis frogs were anesthetized with 0.15% MS-222, and surgery was performed according to standard methods, where the extracted ovarian lobes were placed into Ca^2+-free Barth solution containing collagenase type II (Worthington Biochemical Corporation, Lakewood, NJ, United States) and kept for 90 min on a shaker at 40 rpm (room temperature). Healthy stage V and VI oocytes were selected for injection with cRNA coding for the proteins of interest. Thirty nanoliters of cRNA (100 ng/μL) of each channel were injected using a Microinjector Micro 4 ^TM (World Precision Instruments). After injection, the oocytes were kept in ND96 (96 mM NaCl; 2 mM KCl; 1.8 mM CaCl2; 1 mM MgCl2; 2.5 mM Sodium pyruvate; 10 mM, HEPES [4-(2-hydroxyethyl)-1-piperazineethanesulfonic acid), pH 7.4]. The measurements were performed 24 to 72 h after injection. The oocytes were placed in a 100 μL chamber that was perfused with frog Ringer’s solution (115 mM NaCl; 2.5 mM KCl; 1.8 mM CaCl2, and 10 mM HEPES, pH 7.2). The substances were dissolved in this solution before being manually applied to the oocytes using an automatic pipette (Research pro, Eppendorf, Germany). The application time was usually three ramps (approximately 10 s). For recording, a Turbo Tec-03x (npi electronic GmbH, Tamm, Germany) amplifier was used, with an acquisition rate of 1000 Hz and a low pass filter of 20 Hz. Borosilicate glass capillaries were pulled with a Kopf vertical pipette puller. The pulled glass capillaries were filled with 3 M KCl.
A ramp series protocol was used to evaluate the activity of KCNK channels as previously described ([Beltrán et al., 2013]). Briefly, voltage ramps from –100 mV to + 50 mV ([…]) followed by a constant of +50 mV (150 ms) were applied at a time interval of 2 s. […] This value was then normalized to the average obtained from three ramps prior to the application. In most cases, the currents elicited by this voltage-clamp ramp series protocol were more than ten times larger than the background currents observed in uninjected oocytes, while also presenting the described outward rectification under physiological concentrations of intracellular and extracellular K^+ ([Goldstein et al., 2001]; [Enyedi and Czirják, 2010]). Due to these characteristics, no leakage subtraction was considered necessary. Oocytes not fulfilling these characteristics were not considered for data analysis. […]

hKCNK9 = target: T2, hKCNK9 (Homo sapiens, UniProt Q9NPC2); assay: Two-electrode voltage clamp on Xenopus laevis oocytes expressing hKCNK9; format: cell-based; conditions: for effect on basal activity of hKCNK9: 1 mM
T2 construct: host or cells: Xenopus laevis oocytes injected with cRNA (plasmid pCR4-TOPO)
From the text: as §1
as §2, with “For recording, a Turbo Tec-03x (npi electronic GmbH, Tamm, Germany) amplifier was used, with an acquisition rate of 1000 Hz and a low pass filter of 20 Hz. Borosilicate glass capillaries were pulled with a Kopf vertical pipette puller. The pulled glass capillaries were filled with 3 M KCl.” left out

hKCNK18 = target: T3, hKCNK18 (Homo sapiens, UniProt Q7Z418); assay: Two-electrode voltage clamp on Xenopus laevis oocytes expressing hKCNK18; format: cell-based; conditions: for effect on basal activity of hKCNK18: 1 mM
T3 construct: expressed in transfected cells; host or cells: Xenopus laevis oocytes injected with cRNA (plasmid pEXO, gift of Dr. P. Enyedi)
T3 sequence (Q7Z418 1-384): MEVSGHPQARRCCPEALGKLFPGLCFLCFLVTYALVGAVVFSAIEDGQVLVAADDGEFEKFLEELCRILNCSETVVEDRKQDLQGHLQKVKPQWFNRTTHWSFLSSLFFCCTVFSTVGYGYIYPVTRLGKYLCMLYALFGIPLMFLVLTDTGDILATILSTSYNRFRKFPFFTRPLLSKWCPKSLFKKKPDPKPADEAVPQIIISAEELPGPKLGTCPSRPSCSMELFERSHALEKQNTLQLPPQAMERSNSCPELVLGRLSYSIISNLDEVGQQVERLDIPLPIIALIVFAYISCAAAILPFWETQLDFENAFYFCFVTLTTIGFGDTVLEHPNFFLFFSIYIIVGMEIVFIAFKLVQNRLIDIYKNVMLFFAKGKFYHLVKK
From the text: as §1
The expression in Xenopus laevis oocytes was essentially performed as previously described ([Beltrán et al., 2013]). Briefly, mature female Xenopus laevis frogs were anesthetized with 0.15% MS-222, and surgery was performed according to standard methods, where the extracted ovarian lobes were placed into Ca^2+-free Barth solution containing collagenase type II (Worthington Biochemical Corporation, Lakewood, NJ, United States) and kept for 90 min on a shaker at 40 rpm (room temperature). Healthy stage V and VI oocytes were selected for injection with cRNA coding for the proteins of interest. Thirty nanoliters of cRNA (100 ng/μL) of each channel were injected using a Microinjector Micro 4 ^TM (World Precision Instruments). […]

[1] = test system: background current of mouse trigeminal neurons; assay: Whole-cell patch clamp on cultured mouse trigeminal neurons; format: cell-based; conditions: 100 μM XE-991, Na+/Ca2+-free solution
Experimental: Trigeminal ganglia neurons were isolated from Swiss CD-1 mice (Charles River Laboratories, Sulzfeld, Germany). All experiments involving animals were carried out in accordance with the European Union Community Council’s guidelines and approved by the competent state office of the Federal Land of Northrhine Westphalia (file number 87-51.04.2010.A180). At postnatal day 2–5, the mice were sacrificed by decapitation. The brain was removed, and both trigeminal ganglia were excised. The ganglia were washed in PBS+/+ (Invitrogen, Karlsruhe, Germany) and collected in Leibovitz Medium (L15, Invitrogen) on ice. The ganglia were transferred to Dulbecco’s modified essential medium (DMEM) containing 0.025% collagenase (type IA, Sigma–Aldrich). The minced ganglia were incubated for 45 min in a humidified atmosphere (37°C, 95% humidity, 6% CO2) before trituration. The cell suspension was centrifuged at 1000 rpm for 4 min at room temperature and the pellet was resuspended in F-12 medium (Invitrogen; 31331-D-MEM/F-12, GlutaMax^TM) supplemented with 10% fetal bovine serum (FBS^TM; Invitrogen), 200 U/mL penicillin and 200 U/mL streptomycin. The cell suspension (50 μL) was then plated on poly L-lysine (0.01%) coated glass coverslips (30 mm, Sarstedt, Nümbrecht, Germany), placed in cell culture dishes (35 mm) and kept in a humidified atmosphere (37°C, 95% humidity, 6% CO2) for 1 h. Subsequently, F-12 medium (2 mL) supplemented with FBS (10%), 200 U/mL penicillin and 200 U/mL streptomycin was added to each dish. The cells were kept in an incubator (37°C, 95% humidity, 6% CO2) until use.
The recordings were performed using the whole-cell configuration of the patch-clamp technique. The cells were maintained in an extracellular recording solution containing 140 mM NaCl, 5 mM KCl, 2 mM MgCl2, 2 mM CaCl2, 10 mM HEPES and 10 mM glucose, pH 7.4. The Ca^2+ and Na^+- free extracellular solution contained: 140 mM NMDG-Cl, 5 mM KCl, 2 mM MgCl2, 5 mM EGTA, 10 mM HEPES, pH 7.4. The patch electrodes were pulled from borosilicate glass (1.2 mm OD × 1.17 mm ID; Harvard apparatus, Edenbridge, Kent, United Kingdom) and fire polished to 2.5–4 MΩ tip resistance using a horizontal pipette puller (Zeitz Instruments, Munich, Germany) to obtain a patch of approximately 1–2 μm diameter. The pipette solution contained 140 mM KCl, 1 mM MgCl2, and 10 mM HEPES, pH 7.4. All recordings were performed at room temperature with an EPC7 amplifier (List-Medical Electronic, Darmstadt, Germany). The capacity and serial resistance were adjusted manually. The substances were applied via a custom-made manifold superfusion device. […] The data were acquired using Pulse software (HEKA, Lambrecht, Germany) and analyzed with PulseFit (HEKA, Lambrecht, Germany). Unless otherwise stated, the data are expressed as the mean ± SEM. […]

[2] = Xenopus oocytes, current at +50 mV normalized to pre-application, read-out: IC50 on hKCNK3

T2 sequence (Q9NPC2 whole entry): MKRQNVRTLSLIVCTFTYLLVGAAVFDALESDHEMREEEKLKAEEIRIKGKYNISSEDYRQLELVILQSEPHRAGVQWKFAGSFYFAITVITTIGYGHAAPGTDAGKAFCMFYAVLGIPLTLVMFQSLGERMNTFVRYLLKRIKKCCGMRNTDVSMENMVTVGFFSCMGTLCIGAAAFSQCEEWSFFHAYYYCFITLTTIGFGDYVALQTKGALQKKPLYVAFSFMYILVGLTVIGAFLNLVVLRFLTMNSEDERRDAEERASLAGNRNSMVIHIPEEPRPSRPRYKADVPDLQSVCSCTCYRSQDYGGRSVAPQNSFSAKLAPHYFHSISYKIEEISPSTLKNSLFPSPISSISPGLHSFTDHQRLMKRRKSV
T1 sequence (O14649 whole entry): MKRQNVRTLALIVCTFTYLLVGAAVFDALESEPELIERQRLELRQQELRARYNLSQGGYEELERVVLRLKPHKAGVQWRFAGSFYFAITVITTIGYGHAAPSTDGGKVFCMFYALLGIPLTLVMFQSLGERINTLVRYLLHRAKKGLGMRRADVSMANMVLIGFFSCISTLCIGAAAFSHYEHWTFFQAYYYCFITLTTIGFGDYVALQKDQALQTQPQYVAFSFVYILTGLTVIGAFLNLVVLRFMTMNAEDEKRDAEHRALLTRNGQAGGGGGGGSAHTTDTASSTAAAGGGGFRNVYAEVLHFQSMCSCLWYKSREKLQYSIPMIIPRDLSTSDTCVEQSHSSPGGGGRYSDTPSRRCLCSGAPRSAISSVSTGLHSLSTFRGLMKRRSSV

| Molecule | pungent threshold concentration (tongue surface) [nmol/cm^2] | effect on basal activity of hKCNK3 (hKCNK3; Xenopus oocytes) | IC50 (hKCNK3; [2]) [µM] | % of basal activity after saturating concentrations (hKCNK3) [%] | further results |
| --- | --- | --- | --- | --- | --- |
| CCCCCCCCCCCCC/C=C/C=C/C(=O)NCC(C)C [7c, (2E,4E)-N-isobutyl-octadeca-2,4-dienamide] | 763.0 | – | – | – | – |
| O=C(/C=C/C=C/c1ccc2c(c1)OCO2)N1CCCC1 [1b, piperyline] | 5.1 | decrease in their basal activity | 180 ± 39 | 55 ± 5 | effect on basal activity of hKCNK9 (hKCNK9): decrease in their basal activity; effect on basal activity of hKCNK18 (hKCNK18): decrease in their basal activity; IC50 (hKCNK18; N = 3–6): 252 ± 55 µM; threshold for oral pungency (tongue surface): 0.005 μmol/cm^2 |
| O=C(/C=C/C=C/CC/C=C/c1ccc2c(c1)OCO2)N1CCCC1 [3b, 1-[1-oxo-9(3,4-methylenedioxyphenyl)-2E,4E,8E-nonatrienyl]-pyrrolidine] | – | most pronounced effect | 49.6 ± 8.5 | 35 ± 3 | – |
| CCCC/C=C\CCCCCCC/C=C/C=C/C(=O)NCC(C)C [5c, (2E,4E,13Z)-N-isobutyl-octadeca-2,4,13-trienamide] | 540.5 | – | – | – | tingling threshold concentration (tongue surface): 2162.1 nmol/cm^2 |
| CCCCC/C=C\CCCCCCCC/C=C/C=C/C(=O)NCC(C)C [9c, (2E,4E,14Z)-N-isobutyl-eicosa-2,4,14-trienamide] | 741.2 | – | – | – | tingling threshold concentration (tongue surface): 1482.3 nmol/cm^2 |
| CC(C)CNC(=O)/C=C/C=C/c1ccc2c(c1)OCO2 [1c, piperlonguminine] | 10.4 | decrease in their basal activity | 113 ± 79.5 | 50 ± 14 | effect on basal activity of hKCNK9 (hKCNK9): decrease in their basal activity; effect on basal activity of hKCNK18 (hKCNK18): decrease in their basal activity; threshold for oral pungency (tongue surface): 0.01 μmol/cm^2 |
| O=C(/C=C/C=C/CCCCCC/C=C/c1ccc2c(c1)OCO2)N1CCCC1 [4b, brachyamide A] | – | most pronounced effect | 32 ± 11 | 51 ± 5 | – |
| O=C1c2ccccc2C(Cc2ccncc2)(Cc2ccncc2)c2ccccc21 [XE-991, reference compound] | – | – | – | – | effect of pre-incubation on background current [1]: marked decrease |
| CCCC/C=C\CCCCCCCCC/C=C/C=C/C(=O)NCC(C)C [8c, (2E,4E,15Z)-N-isobutyl-eicosa-2,4,15-trienamide] | 741.2 | – | – | – | tingling threshold concentration (tongue surface): 1482.3 nmol/cm^2 |
| O=C(/C=C/C=C/CC/C=C/c1ccc2c(c1)OCO2)N1CCCCC1 [3a, dehydropipernonaline] | 152.1 | – | 44 ± 6.7 | 39 ± 1 | – |
| 1-(octadeca-2E,4E,13/12Z-trienoyl)-pyrrolidine [5b/6b] | – | most pronounced effect | 19 ± 2.1 | 27 ± 3 | effect on basal activity of hKCNK9 (hKCNK9): inhibited; IC50 (hKCNK9; N = 3–6): 236 ± 56 µM |
| (2E,4E,13/12Z)-N-isobutyl-octadeca-2,4,12/13-trienamide [5c/6c] | – | – | 70 ± 32.8 | 57 ± 7 | – |
| O=C(/C=C/C=C/C=C/c1ccc2c(c1)OCO2)N1CCCCC1 [2a, piperettine] | 5.2 | – | – | – | – |
| CCCCC/C=C\CCCCCC/C=C/C=C/C(=O)NCC(C)C [6c, (2E,4E,12Z)-N-isobutyl-octadeca-2,4,12-trienamide] | 540.5 | – | – | – | tingling threshold concentration (tongue surface): 2162.1 nmol/cm^2 |
| CC(C)CNC(=O)/C=C/C=C/CCCCCC/C=C/c1ccc2c(c1)OCO2 [4c, guineensine] | 810.1 | – | – | 48 ± 2.8 | IC50 (hKCNK3): 90.9 ± 12.7 µM |
